Source: ChEMBL document CHEMBL1201862, “PubChem BioAssay data set” (2004)
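Following 48 hours of exposure in 96-well plates, responses at five concentrations were used to interpolate endpoints linearly. GI50 is the concentration that inhibits growth by half.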 The source made the active and inactive calls. Cut-off read from the data, not from the text of the source: active = GI50 up to about 1.1 µM and inactive = higher.

Experiments:
Assay in all cases: NCI tumour cell line growth inhibition, 48 h
786-0 = system: 786-0
A498 = system: A498
A549 = system: A549
ACHN = system: ACHN
BT-549 = system: BT-549
CAKI-1 = system: CAKI-1
CCRF-CEM = system: CCRF-CEM
COLO 205 = system: COLO 205
DMS-114 = system: DMS-114
DMS-273 = system: DMS-273
DU-145 = system: DU-145
EKVX = system: EKVX
HCC 2998 = system: HCC 2998
HCT-116 = system: HCT-116
HCT-15 = system: HCT-15
HL-60 = system: HL-60
HOP-18 = system: HOP-18
HOP-62 = system: HOP-62
HOP-92 = system: HOP-92
HT-29 = system: HT-29
Hs-578T = system: Hs-578T
IGROV-1 = system: IGROV-1
K562 = system: K562
KM-20L2 = system: KM-20L2
KM12 = system: KM12
LOX IMVI = system: LOX IMVI
M14 = system: M14
M19-MEL = system: M19-MEL
MCF7 = system: MCF7
MDA-MB-435 = system: MDA-MB-435
MDA-N = system: MDA-N
MOLT-4 = system: MOLT-4
Malme-3M = system: Malme-3M
NCI-H226 = system: NCI-H226
NCI-H23 = system: NCI-H23
NCI-H460 = system: NCI-H460
NCI-H522 = system: NCI-H522
NCI/ADR-RES = system: NCI/ADR-RES
OVCAR-3 = system: OVCAR-3
OVCAR-4 = system: OVCAR-4
OVCAR-5 = system: OVCAR-5
OVCAR-8 = system: OVCAR-8
PC-3 = system: PC-3
RPMI-8226 = system: RPMI-8226
RXF 393 = system: RXF 393
SF-268 = system: SF-268
SF-295 = system: SF-295
SF-539 = system: SF-539
SK-MEL-28 = system: SK-MEL-28
SK-MEL-2 = system: SK-MEL-2
SK-MEL-5 = system: SK-MEL-5
SK-OV-3 = system: SK-OV-3
SN12C = system: SN12C
SNB-19 = system: SNB-19
SNB-75 = system: SNB-75
SNB-78 = system: SNB-78
SR = system: SR
SW-620 = system: SW-620
T47D = system: T47D
TK-10 = system: TK-10
U-251 = system: U-251
UACC-257 = system: UACC-257
UACC-62 = system: UACC-62
UO-31 = system: UO-31
DLD-1 = system: DLD-1
LXFL 529 = system: LXFL 529

N#CC(C#N)=C(N)/C(C#N)=C/c1ccc2[nH]ccc2c1
GI50 (786-0): > 100 µM (inactive)
GI50 (A498): > 100 µM (inactive)
GI50 (A549): > 100 µM (inactive)
GI50 (ACHN): > 100 µM (inactive)
GI50 (BT-549): 70.6 µM (inactive)
GI50 (CAKI-1): > 100 µM (inactive)
GI50 (CCRF-CEM): > 100 µM (inactive)
GI50 (COLO 205): > 100 µM (inactive)
GI50 (DMS-114): > 100 µM (inactive)
GI50 (DMS-273): > 100 µM (inactive)
GI50 (DU-145): > 100 µM (inactive)
GI50 (EKVX): > 100 µM (inactive)
GI50 (HCC 2998): > 100 µM (inactive)
GI50 (HCT-116): > 100 µM (inactive)
GI50 (HCT-15): > 100 µM
GI50 (HL-60): > 100 µM (inactive)
GI50 (HOP-18): 71.4 µM (inactive)
GI50 (HOP-62): > 84.3 µM (inactive)
GI50 (HOP-92): > 100 µM (inactive)
GI50 (HT-29): > 100 µM (inactive)
GI50 (Hs-578T): > 100 µM (inactive)
GI50 (IGROV-1): > 100 µM (inactive)
GI50 (K562): > 100 µM (inactive)
GI50 (KM-20L2): > 100 µM (inactive)
GI50 (KM12): > 100 µM (inactive)
GI50 (LOX IMVI): > 100 µM (inactive)
GI50 (M14): > 100 µM (inactive)
GI50 (M19-MEL): > 100 µM (inactive)
GI50 (MCF7): > 100 µM (inactive)
GI50 (MDA-MB-435): > 100 µM (inactive)
GI50 (MDA-N): > 100 µM (inactive)
GI50 (MOLT-4): > 100 µM (inactive)
GI50 (Malme-3M): > 100 µM (inactive)
GI50 (NCI-H226): > 100 µM (inactive)
GI50 (NCI-H23): > 100 µM (inactive)
GI50 (NCI-H460): > 100 µM (inactive)
GI50 (NCI-H522): 97.3 µM (inactive)
GI50 (NCI/ADR-RES): > 100 µM (inactive)
GI50 (OVCAR-3): > 100 µM (inactive)
GI50 (OVCAR-4): > 100 µM (inactive)
GI50 (OVCAR-5): > 100 µM (inactive)
GI50 (OVCAR-8): > 100 µM (inactive)
GI50 (PC-3): > 100 µM (inactive)
GI50 (RPMI-8226): > 100 µM (inactive)
GI50 (RXF 393): > 91.2 µM (inactive)
GI50 (SF-268): > 100 µM (inactive)
GI50 (SF-295): > 100 µM (inactive)
GI50 (SF-539): > 100 µM (inactive)
GI50 (SK-MEL-28): > 100 µM (inactive)
GI50 (SK-MEL-2): > 100 µM (inactive)
GI50 (SK-MEL-5): > 100 µM (inactive)
GI50 (SK-OV-3): > 100 µM (inactive)
GI50 (SN12C): > 100 µM (inactive)
GI50 (SNB-19): > 100 µM (inactive)
GI50 (SNB-75): 22.7 µM (inactive)
GI50 (SNB-78): > 100 µM (inactive)
GI50 (SR): > 100 µM (inactive)
GI50 (SW-620): > 100 µM (inactive)
GI50 (T47D): > 100 µM (inactive)
GI50 (TK-10): > 100 µM (inactive)
GI50 (U-251): > 100 µM (inactive)
GI50 (UACC-257): > 100 µM (inactive)
GI50 (UACC-62): > 84.9 µM (inactive)
GI50 (UO-31): 14 µM (inactive)

C#CCN(C(=O)C(F)(F)F)c1ccc(C(=O)c2ccc(N(CC#C)C(=O)C(F)(F)F)cc2)cc1
GI50 (786-0): 34.1 µM (inactive)
GI50 (A549): 84.9 µM (inactive)
GI50 (ACHN): 32.7 µM (inactive)
GI50 (CCRF-CEM): 25.1 µM (inactive)
GI50 (COLO 205): 30.8 µM (inactive)
GI50 (DLD-1): 37.6 µM (inactive)
GI50 (DMS-114): 20.7 µM (inactive)
GI50 (DMS-273): 24.1 µM (inactive)
GI50 (EKVX): 61 µM (inactive)
GI50 (HCC 2998): 40.9 µM (inactive)
GI50 (HCT-116): 34.5 µM (inactive)
GI50 (HCT-15): 24.6 µM
GI50 (HL-60): 12.9 µM (inactive)
GI50 (HOP-62): 48.2 µM (inactive)
GI50 (HOP-92): 34.8 µM (inactive)
GI50 (HT-29): 19.5 µM (inactive)
GI50 (IGROV-1): 33.1 µM (inactive)
GI50 (K562): 21 µM (inactive)
GI50 (KM-20L2): > 100 µM (inactive)
GI50 (KM12): 32.2 µM (inactive)
GI50 (LXFL 529): 27.7 µM (inactive)
GI50 (M14): 33.2 µM (inactive)
GI50 (M19-MEL): 35.5 µM (inactive)
GI50 (MOLT-4): 15.1 µM (inactive)
GI50 (Malme-3M): 32.6 µM (inactive)
GI50 (NCI-H23): 23.2 µM (inactive)
GI50 (NCI-H460): 33.8 µM (inactive)
GI50 (NCI-H522): 14.9 µM (inactive)
GI50 (OVCAR-3): 33.1 µM (inactive)
GI50 (OVCAR-4): 28.7 µM (inactive)
GI50 (OVCAR-5): 49.9 µM (inactive)
GI50 (OVCAR-8): 36.1 µM (inactive)
GI50 (RPMI-8226): 15.6 µM (inactive)
GI50 (RXF 393): 35.3 µM (inactive)
GI50 (SF-268): 38.4 µM (inactive)
GI50 (SF-295): 37.8 µM (inactive)
GI50 (SF-539): 37.8 µM (inactive)
GI50 (SK-MEL-28): 35.3 µM (inactive)
GI50 (SK-MEL-2): 33.7 µM (inactive)
GI50 (SK-MEL-5): > 100 µM (inactive)
GI50 (SN12C): 34.9 µM (inactive)
GI50 (SNB-19): 46.5 µM (inactive)
GI50 (SNB-75): 43.4 µM (inactive)
GI50 (SNB-78): 52.4 µM (inactive)
GI50 (SW-620): > 100 µM (inactive)
GI50 (TK-10): 48.6 µM (inactive)
GI50 (U-251): 31.6 µM (inactive)
GI50 (UACC-257): 26.4 µM (inactive)
GI50 (UACC-62): 21.6 µM (inactive)
GI50 (UO-31): 59.7 µM (inactive)
